For this assay, the target named is T1, human thrombin (Homo sapiens, UniProt P00734).
T1 construct: human thrombin, bovine thrombin, and Ancrod; purchased Sigma Chemical
Put plainly: Fibrinogen clotting assay (fibrometer) with thrombin. The assay is classed as biochemical. The following applies: final concentration of 10 U/ml. The procedure: Fibrinogen clotting times (S=seconds) in the presence of varying concentrations (μM) of the peptide were determined with a fibrometer following addition of thrombin. Each concentration of peptide was assayed in triplicate. Error bars indicate standard deviations.
All reagents were equilibrated to 37° C. before mixing.

In the case of Heparin, the “effect on clotting time” value was “no effect on clotting time”.

Source of the values: patent publication US4861865A, “Novel antithrombin peptide” (Washington University, priority 1989, dated 1989).
